# According to patent US20060079453A1, “Hla binding peptides and their uses” (priority 2002, published 2006):
# “And” between values parts separate entries of the source, which are not always exact repeats. Equal values may be shown once. Read-outs that look alike come from different tables or passages of the source. No end group written: not given here.
# What was measured:
# Assay in all cases: biochemical
# Format in all cases: binding
# [1] = target: HLA-A*0101 (Homo sapiens, UniProt P04439, A114D/A174V/A182V/D101N/D185E/E176A/E190D/L180R/Q94H/R68K/S129P/T187R/V100A/V91M/W191G)
# [2] = target: HLA-A*3002 (Homo sapiens, UniProt P04439, D101N/D140H/D185E/E176R/F33S/G80R/H175R/K168Q/Q94H/R138E/R41S/V100E)
# [3] = target: HLA-B*1801 (Homo sapiens, UniProt P01889, A329T/A93T/A95T/C349S/D201E/D54G/D98Y/E176V/E187T/E204Q/E69T/K202T/Q94N/R155S/R180L/S121R/V306I/Y140S/Y195H/Y33H/Y91S)
# [4] = target: HLA-B*4001 (Homo sapiens, UniProt P01889, A65T/A93T/A95T/D138N/D98Y/E176V/E69K/N87E/Q56L/Q94N/R180L/S121R/S35A/S48T/T167S/V36M/W171L/Y33H/Y91S)
# [5] = target: HLA-B*4002 (Homo sapiens, UniProt P01889, A65T/A93T/A95T/D138N/D201E/D98Y/E176V/E204Q/E69K/K202T/N87E/Q56L/Q94N/R180L/S48T/Y33H/Y91S)
# [6] = target: HLA-B*4402 (Homo sapiens, UniProt P01889, A223V/A65T/A93T/A95T/D201E/D98Y/E176V/E187L/E204Q/E69K/G107R/H137Y/K202T/L105A/L119I/N104T/N87E/Q56L/Q94N/R106L/R155S/R180D/S101N/S121R/S35A/S48T/T118I/V36M/W191S/Y140D/Y91S)
# [7] = target: HLA-B*4403 (Homo sapiens, UniProt P01889, A223V/A65T/A93T/A95T/D201E/D98Y/E176V/E187L/E204Q/E69K/G107R/H137Y/K202T/L105A/L119I/N104T/N87E/Q56L/Q94N/R106L/R155S/R180L/S101N/S121R/S35A/S48T/T118I/V36M/W191S/Y140D/Y91S)
# [8] = target: HLA-B*4501 (Homo sapiens, UniProt P01889, A329T/A65T/A93T/A95T/C349S/D138N/D201E/D98Y/E176V/E187L/E204Q/E69K/H137Y/K202T/L119W/N87E/Q56L/Q94N/R155S/R180D/S121R/S35A/S48T/V127L/V306I/V36M/W191S/Y140L/Y33H/Y91S)
# [9] = Binding affinity to A*0101 (expressed as an IC50)
# [10] = Binding affinity to A*3002 (expressed as an IC50)
# [11] = read-out: Binding affinity to A*0101 (expressed as an IC50)
compound,measurement,setting,value
LSLGPGPGFY,IC50,[1]; [9],21 nM
same,IC50,[2]; [10],8.2 nM
AENLWVTVE,IC50,[3],> 258000 nM
same,IC50,[4],3890 nM
same,IC50,[5],1360 nM
same,IC50,[6],8910 nM
same,IC50,[7],2570 nM
same,IC50,[8],246 nM
FENLWVTVY,IC50,[3],59 nM
same,IC50,[4],943 nM
same,IC50,[5],1340 nM
same,IC50,[6],4180 nM
same,IC50,[7],1310 nM
same,IC50,[8],21400 nM
MDIDPYKEF,IC50,[3]; B*1801,169000 nM
same,IC50,[4]; B*4001,3700 nM
same,IC50,[5]; B*4002,382 nM
same,IC50,[6]; B*4402,21700 nM
same,IC50,[7]; B*4403,1950 nM
same,IC50,[8]; B*4501,2610 nM
AENLWVTVY,IC50,[3]; B*1801,51 nM and 155 nM and 122 nM
same,IC50,[4]; B*4001,1360 nM and 1580 nM
same,IC50,[5]; B*4002,90 nM and 547 nM
same,IC50,[6]; B*4402,66 nM and 308 nM
same,IC50,[7]; B*4403,43 nM and 284 nM
same,IC50,[8]; B*4501,68 nM and 200 nM and 301 nM
SYQHFRIKLLL,IC50,[1]; [11],> 83300 nM
GEFPYKAAA,IC50,[4]; B*4001,170 nM
same,IC50,[5]; B*4002,3.9 nM
same,IC50,[6]; B*4402,746 nM
same,IC50,[7]; B*4403,2540 nM
same,IC50,[8]; B*4501,11 nM
CC(C)C[C@H](NC(=O)[C@H](C)N)C(=O)N[C@@H](Cc1ccccc1)C(=O)N[C@@H](CCC(N)=O)C(=O)N[C@@H](CCC(=O)O)C(=O)N[C@@H](Cc1ccc(O)cc1)C(=O)N[C@@H](CCC(N)=O)C(=O)N[C@@H](CS)C(=O)N[C@@H](Cc1ccc(O)cc1)C(=O)O,IC50,[1]; [9],> 42000 nM
KTGPGPGHLY,IC50,[1]; [9],29 nM
same,IC50,[2]; [10],1.3 nM
NLALLYGEY,IC50,[1]; [9],275 nM
same,IC50,[2]; [10],102 nM
NVDQQNIDMY,IC50,[1]; [11],47 nM
AENKWVTVY,IC50,[3],781 nM
same,IC50,[4],11300 nM
same,IC50,[5],534 nM
same,IC50,[6],294 nM
same,IC50,[7],540 nM
same,IC50,[8],297 nM
CC[C@H](C)[C@H](NC(=O)[C@H](CO)NC(=O)[C@H](Cc1c[nH]cn1)NC(=O)[C@@H](NC(=O)[C@H](CO)NC(=O)[C@@H](N)CC(C)C)C(C)C)C(=O)N[C@@H](CCC(N)=O)C(=O)N[C@@H](CC(N)=O)C(=O)N[C@@H](CC(=O)O)C(=O)N[C@@H](Cc1ccc(O)cc1)C(=O)O,IC50,[1]; [9],279 nM
CC[C@H](C)[C@H](NC(=O)[C@@H](NC(=O)[C@H](CC(C)C)NC(=O)[C@H](CC(=O)O)NC(=O)[C@@H](NC(=O)[C@@H](N)Cc1ccccc1)[C@@H](C)O)[C@@H](C)O)C(=O)N[C@H](C(=O)N[C@@H](Cc1ccc(O)cc1)C(=O)O)C(C)C,IC50,[1]; [9],16 nM and 34 nM
same,IC50,[2],39000 nM
WVYHTQGYY,IC50,[1]; [9],703 nM
same,IC50,[2],5.6 nM
AENLNVTVY,IC50,[3],198 nM
same,IC50,[4],564 nM
same,IC50,[5],3540 nM
same,IC50,[6],447 nM
same,IC50,[7],358 nM
same,IC50,[8],2440 nM
ATDNYYIVTY,IC50,[1]; [9],7.4 nM and 19 nM
same,IC50,[2],65 nM
EEKPRTLHDL,IC50,[3]; B*1801,> 81600 nM
same,IC50,[4]; B*4001,36200 nM
same,IC50,[5]; B*4002,34000 nM
same,IC50,[6]; B*4402,15200 nM
same,IC50,[7]; B*4403,30000 nM
same,IC50,[8]; B*4501,419 nM
ITEYRHYQY,IC50,[1]; [9],90 nM
AADAAAAKY,IC50,[1]; [9],20 nM
PENLWVTVY,IC50,[3],190 nM
same,IC50,[4],> 72700 nM
same,IC50,[5],> 155000 nM
same,IC50,[6],> 167000 nM
same,IC50,[7],> 425000 nM
same,IC50,[8],> 49000 nM
AENLWVTTY,IC50,[3],28 nM
same,IC50,[4],280 nM
same,IC50,[5],191 nM
same,IC50,[6],37 nM
same,IC50,[7],26 nM
same,IC50,[8],48 nM
DLWYYHTQGYY,IC50,[1]; [11],5880 nM
LSGPGPGAIFY,IC50,[1]; [11],25 nM
LDKGIKPY,IC50,[3]; B*1801,> 100000 nM
same,IC50,[4]; B*4001,17900 nM
same,IC50,[5]; B*4002,468 nM
same,IC50,[6]; B*4402,> 43200 nM
same,IC50,[7]; B*4403,19300 nM
same,IC50,[8]; B*4501,23600 nM
AENLYVTVF,IC50,[4]; B*4001,17 nM
same,IC50,[5]; B*4002,3.1 nM
same,IC50,[6]; B*4402,39 nM
same,IC50,[7]; B*4403,47 nM
same,IC50,[8]; B*4501,69 nM
LEASISGKY,IC50,[1]; [9],57800 nM
same,IC50,[2],87 nM
DENLWVTVY,IC50,[3],26 nM
same,IC50,[4],> 72700 nM
same,IC50,[5],41100 nM
same,IC50,[6],4590 nM
same,IC50,[7],988 nM
same,IC50,[8]; read-out: B*4501,49000 nM
AEIPKLAYF,IC50,[3]; B*1801,1640 nM
same,IC50,[4]; B*4001,57 nM
same,IC50,[5]; B*4002,5.6 nM
same,IC50,[6]; B*4402,229 nM
same,IC50,[7]; B*4403,57 nM
same,IC50,[8]; B*4501,608 nM
AEDLWVTVY,IC50,[3]; B*1801,354 nM
same,IC50,[5]; B*4002,3520 nM
same,IC50,[6]; B*4402,2330 nM
same,IC50,[7]; B*4403,469 nM
same,IC50,[8]; B*4501,1840 nM
KTYGPGPGLY,IC50,[1]; [9],5.7 nM
same,IC50,[2]; [10],0.96 nM
C[C@H](NC(=O)[C@H](Cc1c[nH]c2ccccc12)NC(=O)[C@H](Cc1ccc(O)cc1)NC(=O)[C@H](CC(=O)O)NC(=O)[C@H](Cc1ccc(O)cc1)NC(=O)[C@@H](NC(=O)CN)[C@@H](C)O)C(=O)NCC(=O)N[C@@H](Cc1ccc(O)cc1)C(=O)O,IC50,[1]; [9],141 nM
AENLWVTVM,IC50,[3],508 nM
same,IC50,[4],13 nM
same,IC50,[5],6.1 nM
same,IC50,[6],195 nM
same,IC50,[7],35 nM
same,IC50,[8],50 nM
HTDTPTLHEY,IC50,[1]; [9],20 nM and 30 nM
same,IC50,[2],54 nM
SEAPKYAIL,IC50,[3]; B*1801,2260 nM
same,IC50,[5]; B*4002,7.8 nM
same,IC50,[6]; B*4402,762 nM
same,IC50,[7]; B*4403,2260 nM
same,IC50,[8]; B*4501,479 nM
TLEGPGPGGLY,IC50,[1]; [9],11 nM
same,IC50,[2]; [10],40 nM
RERPDNYV,IC50,[3]; read-out: B*1801,> 73800 nM
same,IC50,[4]; read-out: B*4001,71600 nM
same,IC50,[5]; read-out: B*4002,62 nM
same,IC50,[6]; read-out: B*4402,> 67600 nM
same,IC50,[7]; read-out: B*4403,> 34500 nM
same,IC50,[8]; read-out: B*4501,34600 nM
AENLWVTVP,IC50,[3],38400 nM
same,IC50,[4],9710 nM
same,IC50,[5],339 nM
same,IC50,[6],7720 nM
same,IC50,[7],2470 nM
same,IC50,[8],187 nM
ATSNYYIVTY,IC50,[1]; [9],428 nM
ISEYRHYQY,IC50,[1]; [9],40 nM
LDPYARVAI,IC50,[3],> 24400 nM
same,IC50,[4],> 88900 nM
same,IC50,[5],372 nM
same,IC50,[6],> 41600 nM
same,IC50,[7],> 39800 nM
same,IC50,[8],> 49000 nM
ETRHYCYSLY,IC50,[1]; [9],43 nM
same,IC50,[2],10 nM
ATELHPEYY,IC50,[1]; [9],43 nM
same,IC50,[2],1730 nM
